Reference: patent publication US10125075B2, “P-toluic acid production method” (TORAY INDUSTRIES, INC., priority 2015, dated 2018)
In brackets after ≈: the same amount, converted by molar mass.

Legend:
solubility in water = settings: 25 °C
physchem = settings: 25 °C, pH 7, aqueous buffer
[1] = pH 7, 25° C.; 'known to be'; cited from earlier work

Structure (SMILES): CC1C(O)CC(O)(C(=O)O)CC1O (stereo not shown) [Compound (2)]
- solubility (solubility in water; pH 7, aqueous buffer): ≥ 50 mg/mL

Structure (SMILES): CC1C(O)C=C(C(=O)O)CC1O (stereo not shown) [Compound (1)]
- solubility (physchem): ≥ 50 mg/mL

Structure (SMILES): Cc1ccc(C(=O)O)cc1 [p-toluic acid]
- solubility in water [1]: 0.3 mg/mL (≈ 2.2 mM)
- solubility (solubility in water; pH 0, aqueous buffer): ≤ 0.1 mg/mL
